In test [1] the target is T1, PTP1B (human, recombinant) (Homo sapiens, UniProt P18031).
T1 sequence (P18031 1-435): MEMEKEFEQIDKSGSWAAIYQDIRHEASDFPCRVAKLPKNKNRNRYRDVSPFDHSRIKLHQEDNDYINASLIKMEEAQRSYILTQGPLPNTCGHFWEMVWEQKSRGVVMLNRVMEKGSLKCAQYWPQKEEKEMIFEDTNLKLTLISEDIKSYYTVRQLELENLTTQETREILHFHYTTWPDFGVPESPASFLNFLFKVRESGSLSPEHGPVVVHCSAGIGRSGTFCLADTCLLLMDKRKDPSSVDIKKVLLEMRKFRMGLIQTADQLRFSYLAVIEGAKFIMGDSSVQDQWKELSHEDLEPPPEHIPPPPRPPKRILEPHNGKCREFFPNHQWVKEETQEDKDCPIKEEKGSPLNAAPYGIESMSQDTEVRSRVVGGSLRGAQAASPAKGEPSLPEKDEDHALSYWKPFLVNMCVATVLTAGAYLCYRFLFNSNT
Put plainly: PTP1B inhibition assay. The class given is biochemical.

In the next test the target is yeast α-glucosidase. Put plainly: α-glucosidase inhibition assay. Conditions: read-out: IC50 α-Glucosidase; Table 2; mean ± SD, n = 3. The class given is biochemical.

Broadly, the IC50 is the concentration at which inhibition is half-maximal. On to `CC[C@H](CC[C@@H](C)[C@H]1CC[C@H]2[C@@H]3CC=C4C[C@@H](O)CC[C@]4(C)[C@H]3CC[C@]12C)C(C)C` [Compound 6, β-Sitosterol], for which the concentration for half-maximal inhibition (IC50) was above 100 µM in test [1] and 69.41 ± 0.03 µM at yeast α-glucosidase.
As for `CC1(C)CC[C@]2(C(=O)O)CC[C@]3(C)C(=CC[C@@H]4[C@@]5(C)CC[C@H](O)C(C)(C)[C@@H]5CC[C@]43C)[C@@H]2C1` [Compound 7, Oleanolic acid], the IC50 on yeast α-glucosidase stood at 41.04 ± 0.34 µM.

Source of the values: PMC9476787 (Chinese Herbal Medicines, 2020).
